This is an account of results in patent publication US20180118721A1, “PYRIMIDINE DERIVATIVES” (Merck Patent GmbH, priority 2015, published 2018).

The structures appear in SMILES notation. Read-outs that look alike come from different tables or passages of the source.

Broadly, the solubility is the dissolved amount per volume that the medium holds. Read a high solubility as a readily soluble substance. What is called IC50 is the concentration that inhibits the measured activity by half. As a reminder, the residence time is how long the partners stay bound on average. For orientation: Kd means a measure of binding affinity in units of concentration.

A short description of data set [1]: Shake flask solubility measurement. It counts as physicochemical. To be noted: aqueous buffer, thermodynamic from solid, phosphate buffer pH 7.4, 37° C. On the procedure:
Compound solubility in aqueous solution is determined by a standard method in the art, the shake flask method. Solubility measurement is performed under equilibrium conditions at pH 7.4. Samples are prepared by dissolving an excess of the test compound in a phosphate buffer (made up of 3,954 g sodium hydrogenphosphate-monohydrate, 6,024 g sodium chloride, 950 ml ultrapure water and adjusted to pH 7.4 with 0.1 M NaOH or 0.1 M HCl). These samples are shaken at 37° C. with 450 rpm (shaker: TiMix control Bühler) for 24 h in total until equilibrium is reached. After 7 hours shaking, the pH value of the sample is controlled and adjusted, if necessary. It is also checked that the sample (test compound) is available in excess. Shortly before the end of 24 h, samples are checked again for pH and precipitate. At the end of 24 h and after separation of the solid by filtration, the concentration of the compound in the filtrate is determined by liquid chromatography using […] (LC-UV).
Sample preparation: Incubation hood: TH 15 Bühler; pH device 766 Calimatic Knick; pH electrode InLab 423 Mettler
Chromatography Conditions:
Column: Chromolith RP18e 100×3 mm
Wavelength range: 190-400 nm • select a suitable evaluation wavelength
Injection volume: Probe 5 μl and 15 μl; Standard 5 μl
Column stove temperature: 37° C.
Eluent A: water/formic acid (999:1; v/v)
Eluent B: acetonitrile/formic acid (999:1; v/v)

A short description of data set [2]: Microsomal stability (intrinsic clearance), human. To be noted: human liver microsomes, 0.5 mg/ml protein, Clint. Type of data set: in vitro ADME. The text has this:
(§1) A microsomal stability assay is used to measure in vitro clearance (Clint). The assay involves measuring the rate of disappearance of a compound due to its intrinsic attitude to be metabolized (“intrinsic” meaning that the disappearance is not affected by other properties like permeability, binding etc. that play a role when quantifying in vivo clearance). The microsomal stability (intrinsic clearance, Clint) and thus metabolic stability is generally given as μl/min/mg protein. It can be visualized as the volume of solution that 1 mg of microsomes is able to clear of the compound in one minute.
(§2) A Tecan Genesis workstation (RSP 150/8) was used for to perform the microsomal incubations. Analysis was carried out using a Waters ACQUITY UPLC system coupled to an ABSciex API3000 mass spectrometer. Data analysis was performed using Assay Explorer (Symyx).
(§3) Column: Acquity UPLC BEH C18, 2.1×50 mm, 1.7 μm (Waters) Mobile phases: A=0.1% formic acid in water; B=acetonitrile
(§4) Flow rate: 0.750 mL/min; Detection: ESI, MRM; Injection: 10 μL; Column temperature: 50° C.
(§5) • Potassium phosphate buffer: 0.05 M potassium phosphate buffer pH 7.4 containing 1 mM MgCl2 • NADPH (nicotinamide adenine dinucleotide phosphate): 22.5 mg NADPH-Na4 in 1.8 ml potassium phosphate buffer • Acetonitrile: 50 Vol % acetonitrile (1 volume acetonitrile, 1 volume water) • DMSO: 20 Vol % DMSO in water • Stock solution of 20 mg/ml human or mouse liver microsomes (protein)/ml in phosphate buffer • Stock solution of 10 mM compound in 100% DMSO
(§6) Dilution of test compounds was done in 2 steps starting from a 10 mM stock solution of the respective compound in 100% DMSO. First 4 μl stock solution was added to 196 μl of 20 Vol % DMSO. In a second step, 10 μl of the first dilution were added to 1590 μl potassium phosphate buffer to achieve a final concentration of 1.25 μM in the final compound dilution. Thus, the amount of organic solvent in the assay was kept to a minimum (<1%).
(§7) The human or mouse liver microsome (protein) solution to be used in the assay was prepared by mixing 750 μl stock solution (20 mg/ml) and 2250 μl potassium phosphate buffer to a final concentration of 5 mg/ml.
(§8) Incubation was carried out on a 96 deep well incubation plate. 160 μl per well of the final compound dilution were transferred onto the incubation plate. Four samples of each compound dilution were assayed. 20 μl/well liver microsome solution was added to each well and the samples were then preincubated for 5 min at 37° C. and 800 rpm agitation. Two reference compounds (verapamil and dextromethorphan) were used in parallel in every experiment and for each species (human or mouse microsomes) to ensure system performance and for comparison.
(§9) On a separate stop plate, 160 μl acetonitrile were added per well.
(§10) After preincubation, i.e. at time t1=0 minutes, 18 μl samples of incubated compound solution and were transferred and added per well (containing acetonitrile) on the stop plate to prevent a reaction (0 minutes control samples, 4 samples per compound). Equally, 18 μl samples of incubated reference compound solution were transferred and added per well (containing acetonitrile) on the stop plate at time t1=0 minutes and again after 30 minutes (t4), solubility and chemical stability of the compound were checked. […]

In data set [3] the target is T1, purified human recombinant MTH1 (human MTH1, residues 42-197) (Homo sapiens, UniProt P36639).
T1 construct: human MTH1, residues 42-197, Uniprot-ID: P36639, expressed in E. coli; made in house; host or cells: E. coli
The experiment in a line: MTH1 enzymatic assay (luminescence-based, PPiLight). Type of data set: biochemical.

Data set [4] is described as follows: Microsomal stability (intrinsic clearance), mouse. Type of data set: in vitro ADME. To be noted: mouse liver microsomes, 0.5 mg/ml protein, Clint.
Description: as §1, §2, §3, §4, §5, §6, §7, §8, §9, §10

Data set [5] has as its target T2, humanMTH1 (aminoacids 42 to 197) (Homo sapiens, UniProt P36639).
T2 construct: humanMTH1 (aminoacids 42 to 197); His tag at the N-terminus; purchased Abnova ab99390; host or cells: E. coli
The experiment in a line: Binding affinities and kinetics on MTH1 surfaces by surface plasmon resonance (SPR). To be noted: for residence time: on MTH1, calculated on the basis of the KD values; for Kd: SPR, Biacore4000, 25° C., Table 1, grouped, read-out: KD IC50. As for the experimental part: The SPR experiments were performed using a Biacore4000 instrument. […] HumanMTH1 was immobilized on Biacore CM5 chips at 25° C. and a flow rate of 10 μL/min using amine coupling at pH 5.5 and in presence of 1 μM MSC2567771B-1 according to Biacore's standard protocol. MTH1 was applied at a concentration of 10 μg/mL and depending on the duration of the injection time immobilization levels between 500 and 2,000 RU were obtained. Sample compounds were applied in form of titration series with a doubling of concentration at each subsequent injection. In general, 10 concentrations were injected covering a dilution range of 500 fold. Before and after each of these titration series the binding capability of the surface was controlled by the injection of the positive control S-Crizotinib at a fixed concentration of 2 μM. Kinetic titration experiments were performed at 25° C. with a flow rate of 30 μL/min, a sample contact time of 90 sec and a dissociation time of 420 sec in running buffer (20 mM Tris-HCl (Tris(hydroxymethyl)-aminomethane HCl) pH 7.40, 150 mM NaCl, 5 mM MgCl2, 1 mM DTT (dithiothreitol), 0.1 mM EGTA (ethylene glycol tetraacetic acid), 0.05% Tween 20) containing 2% DMSO (dimethyl sulfoxide). Buffer injections identical to the sample injections were executed at the beginning of the successive series for the purpose of double referencing. Solvent correction cycles (eight correction points, 1.4%-2.8% DMSO) were run at the same intervals. For surface conditioning ten start-up cycles (buffer injections) were run. Data points were collected at a sample rate of 10 Hz.
Data sets were processed and analyzed using the software Biacore4000 Evaluation, version 1.0. Solvent corrected and double-referenced association and dissociation phase data were fitted to a simple 1:1 interaction model with mass transport limitations.
Measured values are indicated as KD IC50 in the Table below.

Where [6] appears, read: 6 μM 8-oxo-dGTP, Table 1, grouped.

In data set [1], `CNc1cc(N2CCC(F)(F)C2)nc(N)n1` [Example 3, 6-(3,3-difluoro-pyrrolidin-1-yl)-N^4-methyl-pyrimidine-2,4-diamine] showed a solubility at 24 h above 1000 µg/mL. The Microsomal stability human in data set [2] is recorded as below 10 μl/min/mg prot. Besides, the half-inhibitory concentration (IC50) in data set [3] (setting [6]) and in data set [3] (Table 2) was below 1 nM each time. In data set [4], the Microsomal stability mouse is 43 μl/min/mg prot.
In data set [1], `NC(=O)C1CCN(c2cc(NC3CC3)nc(N)n2)C1` (centres unmarked) [Example 5, 1-(2-amino-6-cyclopropylamino-pyrimidin-4-yl)-pyrrolidine-3-carboxylic acid amide-formate] registered a solubility at 24 h above 1000 µg/mL. In addition, in data set [2], the Microsomal stability human is given as below 10 μl/min/mg prot. Besides, the IC50 is 1 to 100 nM in data set [3] (setting [6]) and 7 nM in data set [3] (Table 2). The Microsomal stability mouse in data set [4] is recorded as 13 μl/min/mg prot.
As for `CNc1cc(N2CCC(O)C2)nc(N)n1` (centres unmarked) [Example 7, 1-(2-amino-6-methylamino-pyrimidin-4-yl)-pyrrolidin-3-ol-formate], the solubility at 24 h in data set [1] is above 1000 µg/mL. Besides, in data set [2], the Microsomal stability human is recorded as below 10 μl/min/mg prot. The concentration for half-maximal inhibition (IC50) in data set [3] (setting [6]) was 1 to 100 nM; in data set [3] (Table 2), 1.3 nM. Further, in data set [4], the Microsomal stability mouse is recorded as below 10 μl/min/mg prot.
In data set [1], `CNc1cc(N2CCC[C@@H]2CO)nc(N)n1` [Example 8, [(R)-1-(2-amino-6-methylamino-pyrimidin-4-yl)-pyrrolidin-2-yl]-methanol-formate] returned a solubility at 24 h above 1000 µg/mL. In data set [2], the Microsomal stability human is recorded as below 10 μl/min/mg prot. For the same compound, the IC50 in data set [3] (setting [6]) is 1 to 100 nM; in data set [3] (Table 2), 2 nM. Also, in data set [4], the Microsomal stability mouse is given as below 10 μl/min/mg prot.
`CNc1cc(N2CC(C(=O)NCCc3ccc(S(=O)(=O)F)cc3)C2)nc(N)n1` [Example 108, 4-(2-{[1-(2-Amino-6-methylamino-pyrimidin-4-yl)-azetidine-3-carbonyl]-amino}-ethyl)-benzenesulfonyl fluoride]: the residence time in data set [5] was at least 10 min. Further, the half-inhibitory concentration (IC50) in data set [3] (setting [6]) was below 1 nM.
Turning to `CNc1cc(N2CCCC2Cc2cccc(C)c2)nc(N)n1` (centres unmarked) [Example 112, N4-Methyl-6-[2-(3-methyl-benzyl)-pyrrolidin-1-yl]-pyrimidine-2,4-diamine], in data set [5], the Kd was in the range of 1 to 100 nM. The IC50 in data set [3] (setting [6]) is below 1 nM.
The matching figures for `C=CC(=O)Nc1ccc(CCNC(=O)C2CCN(c3cc(NC)nc(N)n3)CC2)cc1` [Example 113, 1-(2-Amino-6-methylamino-pyrimidin-4-yl)-piperidine-4-carboxylic acid [2-(4-acryloylamino-phenyl)-ethyl]-amide]: 1 to 100 nM and 1 to 100 nM.
The matching figures for `CNc1cc(N2C(=O)CCC2Cc2ccccc2)nc(N)n1` (centres unmarked) [Example 114, 1-(2-Amino-6-methylamino-pyrimidin-4-yl)-5-benzyl-pyrrolidin-2-one]: 1 to 100 nM and 1 to 100 nM.
Taken in the same sequence, the figures for `CNc1cc(N2CC(Cc3ccccc3)CC2=O)nc(N)n1` (centres unmarked) [Example 115, 1-(2-Amino-6-methylamino-pyrimidin-4-yl)-4-benzyl-pyrrolidin-2-one] were 1 to 100 nM and 1 to 100 nM.
For `CNc1cc(N2CCCC[C@@H]2Cc2ccc(OC)cc2)nc(N)n1` [Example 116, 6-[(R)-2-(4-Methoxy-benzyl)-piperidin-1-yl]-N4-methyl-pyrimidine-2,4-diamine], in data set [5] (read-out: Residence time), the residence time was at least 10 min. Also, the IC50 in data set [3] (setting [6]) was below 1 nM.
`CNc1cc(N2CCCC[C@H]2Cc2ccc(OC)cc2)nc(N)n1` [Example 117, 6-[(S)-2-(4-Methoxy-benzyl)-piperidin-1-yl]-N4-methyl-pyrimidine-2,4-diamine]: the Kd in data set [5] is below 1 nM. In data set [3] (setting [6]), the IC50 was below 1 nM.
For `C=CC(=O)Nc1ccc(CCNC(=O)C2CN(c3cc(NC)nc(N)n3)C2)cc1` [Example 118, 1-(2-Amino-6-methylamino-pyrimidin-4-yl)-azetidine-3-carboxylic acid [2-(4-acryloylamino-phenyl)-ethyl]-amide], the dissociation constant (Kd) in data set [5] was in the range of 1 to 100 nM. In addition, the half-maximal inhibitory concentration (IC50) in data set [3] (setting [6]) fell in the range of 1 to 100 nM.
For the compound `CNc1cc(N2CCC(C(=O)NCCc3ccc(S(=O)(=O)F)cc3)CC2)nc(N)n1` [Example 120, 4-(2-{[1-(2-Amino-6-methylamino-pyrimidin-4-yl)-piperidine-4-carbonyl]-amino}-ethyl)-benzenesulfonyl fluoride], in data set [5], the residence time is at least 10 min. Besides, the concentration for half-maximal inhibition (IC50) in data set [3] (setting [6]) is below 1 nM.
